Reference: paper PMC11347369, “Synthesis and antibacterial action of 3’,6’-disubstituted spectinomycins” (The Journal of Antibiotics, 2024)
Converted amounts (≈) assume the structure as drawn. Structures can show the parent of a compound that is named as a salt. Where two headings read alike, the source gives them in different places.

Legend:
[1] = system: K. pneumoniae ATCC 700603; assay: MIC broth microdilution, K. pneumoniae; format: cell-based, Klebsiella pneumoniae; settings: Klebsiella pneumoniae, ATCC700603, read-out: Minimum Inhibitory Concentration
[2] = molecular target: T1, M. smegmatis ribosomes (strain SZ380) (Mycolicibacterium smegmatis, UniProt A0QSG6); assay: Mycobacterial cell-free translation inhibition assay; format: biochemical, Mycobacterium smegmatis
T1 construct: S30 extracts were prepared by addition of dithiothreitol (DTT) to 1 mM and centrifugation; endogenous in cells; host or cells: M. smegmatis strain SZ380, S30 cell extract
T1 sequence (A0QSG6 whole entry): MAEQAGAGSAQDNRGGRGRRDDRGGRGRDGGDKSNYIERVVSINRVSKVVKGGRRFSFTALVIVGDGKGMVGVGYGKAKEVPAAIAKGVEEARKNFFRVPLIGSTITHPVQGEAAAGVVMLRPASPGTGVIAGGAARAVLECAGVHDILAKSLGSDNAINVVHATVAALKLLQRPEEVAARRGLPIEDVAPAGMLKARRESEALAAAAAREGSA
Procedure: Mycobacterial cell-free translation inhibition assays were performed as described previously. In brief, M. smegmatis strain SZ380 bacterial cells were disrupted and emulsified with a microfluidizer processor (Microfluidics, Westwood, MA, USA) at 25,000 lb/in^2. S30 extracts were prepared by addition of dithiothreitol (DTT) to 1 mM and centrifugation at 30,000 × g at 4 °C. Translation reaction mixtures containing either test article or DMSO vehicle control and 4 μl of the S30 extract, 0.2 mM amino acid mix, 6 μg tRNA (Sigma), 0.4 μg hFluc mRNA, 0.3 μl protease inhibitor (complete, EDTA-free, Roche), 12 U RNAse inhibitor (Ribolock, Thermo Scientific), 6 μl S30 premix without amino acids (Promega), plus water to a final reaction volume of 15 μl were incubated for 1 h at 37 °C. The reaction was stopped on ice before adding 75 μl of luciferase assay reagent (Promega) and recording of luminescence. Regression analysis and IC50 calculations were performed using GraphPad Prism version 9.3.1 by using the equation [log(inhibitor) vs. response–Variable slope (four parameters)] with the fitting method: least squares (ordinary) fit. Y = Bottom + (Top-Bottom)/(1 + 10^((X-LogIC50))).

[3] = system: S. epidermidis ATCC 14990; assay: MIC broth microdilution, S. epidermidis; format: cell-based; settings: Staphylococcus epidermidis, ATCC14990, read-out: Minimum Inhibitory Concentration
M. tuberculosis H37Rv [4] = system: M. tuberculosis H37Rv
E. coli K12 [5] = settings: E. coli K12 MIC versus K12 ∆tolC MIC
P. aeruginosa ATCC 15692 = assay: MIC broth microdilution, P. aeruginosa; format: cell-based, Pseudomonas aeruginosa; settings: Pseudomonas aeruginosa
E. coli K12 [6] = assay: microbe, parasite or virus in culture; settings: Escherichia coli, K12, read-out: Minimum Inhibitory Concentration
E. coli K12 ∆tolC = assay: microbe, parasite or virus in culture; format: cell-based; settings: Escherichia coli, read-out: Minimum Inhibitory Concentration
M. abscessus ATCC 19977 [7] = assay: microbe, parasite or virus in culture; settings: Mycobacteroides abscessus, ATCC19977, 72 h, read-out: WT MIC
S. pyogenes ATCC 700294 = assay: MIC broth microdilution, S. pyogenes; format: cell-based; settings: Streptococcus pyogenes
[8] = system: M. tuberculosis H37Rv ∆1258c; assay: microbe, parasite or virus in culture; format: cell-based; settings: Mycobacterium tuberculosis, 168 h
E. faecalis ATCC 29212 = assay: MIC broth microdilution, E. faecalis; format: cell-based; settings: Enterococcus faecalis
[9] = system: M. smegmatis strain MC^2 155; assay: MIC broth microdilution, M. smegmatis; format: cell-based, Mycobacterium smegmatis; settings: Mycolicibacterium smegmatis, MC^2155, 72 h, read-out: WT MIC
M. tuberculosis H37Rv [10] = assay: microbe, parasite or virus in culture; settings: Mycobacterium tuberculosis, 168 h, read-out: WT MIC
[11] = system: M. abscessus ATCC 19977 ∆2780c; assay: microbe, parasite or virus in culture; format: cell-based, Mycobacterium abscessus; settings: Mycobacteroides abscessus, ATCC19977, 72 h, read-out: ∆2780c MIC
E. faecium ATCC 19434 = assay: MIC broth microdilution, E. faecium; format: cell-based; settings: Enterococcus faecium
M. abscessus ATCC 19977 [12] = system: M. abscessus ATCC 19977
S. aureus USA300 = assay: MIC broth microdilution, S. aureus; format: cell-based; settings: Staphylococcus aureus, USA300, read-out: Minimum Inhibitory Concentration
S. pneumoniae R6 = assay: MIC broth microdilution, S. pneumoniae; format: cell-based; settings: Streptococcus pneumoniae, read-out: Minimum Inhibitory Concentration
A. baumannii ATCC 19606 = assay: MIC broth microdilution, A. baumannii; format: cell-based, Acinetobacter baumannii; settings: Acinetobacter baumannii
[13] = molecular target: T1, M. smegmatis ribosomes (strain SZ380)
[14] = cell-free translation, M. smegmatis SZ380 S30 extract, luciferase readout, read-out: Ribo. IC50
[15] = ATCC15692, read-out: Minimum Inhibitory Concentration
[16] = ATCC700294, read-out: Minimum Inhibitory Concentration
[17] = ATCC29212, read-out: Minimum Inhibitory Concentration
[18] = ATCC19434, read-out: Minimum Inhibitory Concentration
[19] = ATCC19606, read-out: Minimum Inhibitory Concentration
[20] = previously reported; read-out: Ribo. IC50; cited from earlier work

| SMILES | MIC [1] [µg/mL] | IC50 [2, 14] [nM] | MIC [3] [µg/mL] | Efflux Ratio (M. tuberculosis H37Rv [4]) | E. coli Efflux Ratio (E. coli K12 [5]) | MIC (P. aeruginosa ATCC 15692; [15]) [µg/mL] | MIC (E. coli K12 [6]) [µg/mL] | MIC (E. coli K12 ∆tolC) [µg/mL] | MIC (M. abscessus ATCC 19977 [7]) [µg/mL] | MIC (S. pyogenes ATCC 700294; [16]) [µg/mL] | MIC [8] [µg/mL] | MIC (E. faecalis ATCC 29212; [17]) [µg/mL] | MIC [9] [µg/mL] | MIC (M. tuberculosis H37Rv [10]) [µg/mL] | MIC [11] [µg/mL] | MIC (E. faecium ATCC 19434; [18]) [µg/mL] | Efflux Ratio (M. abscessus ATCC 19977 [12]) | MIC (S. aureus USA300) [µg/mL] | MIC (S. pneumoniae R6) [µg/mL] | MIC (A. baumannii ATCC 19606; [19]) [µg/mL] | further results |
| --- | --- | --- | --- | --- | --- | --- | --- | --- | --- | --- | --- | --- | --- | --- | --- | --- | --- | --- | --- | --- | --- |
| CCCC[C@@H]1C[C@@H](N)[C@]2(O)O[C@@H]3[C@@H](NC)[C@@H](O)[C@@H](NC)[C@H](O)[C@H]3O[C@@H]2O1 [Amino TroSPC (11), 3’-(R)-Amino-3’-deoxy-6’-propyl-dihydrospectinomycin trihydrochloride] | > 64 | 640 | > 64 | 8 | >2 | > 64 | > 64 | 32 | 64 | 32 | 2 | > 64 | 32 | 16 | 64 | > 64 | 1 | > 64 | 64 | > 64 |  |
| CN[C@@H]1[C@H](O)[C@H](NC)[C@H]2O[C@]3(O)[C@H](O[C@@H]2[C@H]1O)O[C@H](C)C[C@@]3(O)CNCc1ccc(F)cc1 [bAmSPC (5), reference compound] |  |  |  | 8 |  |  |  |  | 128 (≈ 271 µM) |  | 2 (≈ 4.24 µM) |  |  | 16 (≈ 33.9 µM) | 8 (≈ 17 µM) |  | 16 |  |  |  | IC50 [13, 20]: 1.18 µM |
| CCCCC1CC(O)(CNCc2ccc(F)cc2)C2(O)OC3C(NC)C(O)C(NC)C(O)C3OC2O1 [bAmTroSPC (6), 3′(R)-[(4-Fluorobenzyl)aminomethyl]-6’-propyl-dihydrospectinomycin trihydrochloride] | > 64 | 2490 | 16 | 8 | 4–8 | > 64 | 32 | 4 to 8 | 64 | 2 | 1 | 32 | 64 | 8 | 64 | 32 | 1 | 64 | 4 | > 64 |  |
| CN[C@@H]1[C@H](O)[C@H](NC)[C@H]2O[C@@]3(O)C(=O)C[C@@H](C)O[C@H]3O[C@@H]2[C@H]1O [SPC (1), spectinomycin] | 512 (≈ 1540 µM) |  | 256 to 512 (≈ 770 to 1540 µM) | 16 | 2 |  | 128 (≈ 385 µM) | 64 (≈ 193 µM) | 512 (≈ 1540 µM) |  | 4 (≈ 12 µM) |  |  | 64 (≈ 193 µM) | 16 (≈ 48.1 µM) |  | 32 | 512 (≈ 1540 µM) | 16 (≈ 48.1 µM) |  | MIC (P. aeruginosa ATCC 15692; ATCC15692, P. aeruginosa ATCC 15692, read-out: Minimum Inhibitory Concentration): 1020 µg/mL (≈ 3080 µM); IC50 ([13]; read-out: Ribo. IC50; previously reported; cited from earlier work): 0.8 µM; MIC (S. pyogenes ATCC 700294; ATCC700294, S. pyogenes ATCC 700294, read-out: Minimum Inhibitory Concentration): 32 µg/mL (≈ 96.3 µM); MIC (E. faecalis ATCC 29212; ATCC29212, E. faecalis ATCC 29212, read-out: Minimum Inhibitory Concentration): 256 µg/mL (≈ 770 µM); MIC ([9]; M. smegmatis strain MC^2 155, 3 days): 64 µg/mL (≈ 193 µM); MIC (E. faecium ATCC 19434; ATCC19434, E. faecium ATCC 19434, read-out: Minimum Inhibitory Concentration): 256 µg/mL (≈ 770 µM); MIC (A. baumannii ATCC 19606; ATCC19606, A. baumannii ATCC 19606, read-out: Minimum Inhibitory Concentration): > 1020 µg/mL |
| CCCCC1CC(O)(CNCCc2ccc(F)cc2)C2(O)OC3C(NC)C(O)C(NC)C(O)C3OC2O1 [eAmTroSPC (8), 3′(R)-[(4-Fluorophenylethyl)aminomethyl]-6’-propyl-dihydrospectinomycin trihydrochloride] | > 64 |  | 8 | 8 | 8–16 | > 64 | 64 | 4 to 8 | 8 | 4 | 0.25 | 32 | 8 | 2 | 8 | 32 | 1 | 64 | 8 | > 64 | IC50 [2]: 2310 nM |
| CCCCC1CC(O)(CN)C2(O)OC3C(NC)C(O)C(NC)C(O)C3OC2O1 [AmTroSPC (13), 3’-(R)-Aminomethyl-6’-propyl-dihydrospectinomycin] | > 64 | 2710 | > 64 | 8 | >2 | > 64 | > 64 | 32 (≈ 78.9 µM) | 64 (≈ 158 µM) | 16 (≈ 39.5 µM) | 8 (≈ 19.7 µM) | > 64 | 128 (≈ 316 µM) | 64 (≈ 158 µM) | 64 (≈ 158 µM) | > 64 | 1 | > 64 | 16 to 32 (≈ 39.5 to 78.9 µM) | > 64 |  |
| CN[C@@H]1[C@H](O)[C@H](NC)[C@H]2O[C@]3(O)[C@H](O[C@@H]2[C@H]1O)O[C@H](C)C[C@H]3NC(=O)Cc1ccccn1 [SPA (3), reference compound] |  |  |  |  |  |  |  |  |  |  | 4 (≈ 8.84 µM) |  |  | 2 (≈ 4.42 µM) |  |  | 4 |  |  |  | IC50 ([13]; converted from µg/mL to µM from what was previously reported; read-out: Ribo. IC50; cited from earlier work): 1.8 µM |
| CCCC[C@@H]1C[C@@H](NC(=O)Cc2ccccn2)[C@]2(O)O[C@@H]3[C@@H](NC)[C@@H](O)[C@@H](NC)[C@H](O)[C@H]3O[C@@H]2O1 [TroSPA (4), 3′-Deoxy-3′(R)-[(pyridin-2-yl)acetylamino]-6’-propyl-dihydrospectinomycin dihydrochloride] | > 64 |  | > 64 | 2 | >2 | > 64 | > 64 | 32 | 64 | 8 | 1 | > 64 | 32 | 2 | 16 | > 64 | 4 | > 64 | 16 | > 64 | IC50 [2]: 2450 nM |
| CN[C@@H]1[C@H](O)[C@H](NC)[C@H]2O[C@]3(O)[C@H](O[C@@H]2[C@H]1O)O[C@H](C)C[C@@]3(O)CNCCc1ccc(F)cc1 [eAmSPC (7), reference compound] |  |  |  | 4 |  |  |  |  | 4 (≈ 8.24 µM) |  | 0.5 (≈ 1.03 µM) |  | 4 (≈ 8.24 µM) | 2 (≈ 4.12 µM) | 1 (≈ 2.06 µM) |  | 4 |  |  |  | IC50 [13, 20]: 1.01 µM |
